# Experimental data taken from US12636291B2, “Compositions and methods relating to use of agonists of ALPHA5-containing GABAA receptors” (Centre for Addiction and Mental Health, priority 2019, dated 2026).
# Experiments:
# [1] = test system: cultured pyramidal neurons; experiment: Morphology of cultured GFP-expressing pyramidal neurons after acute treatment; format: cell-based, mouse; details: 1 μM, 24 hrs, vs vehicle (0.01% DMSO); FIG. 11A-B; initial data
# Protocol: Transgenic mice were generated to express a fluorescent protein (GFP) only in pyramidal neurons. Embryos were collected at E17, and brain homogenates were plated and cultured under suitable conditions for neuronal growth. Following 2 weeks of incubation and growth, the compound GL-II-73 (1 μM) or vehicle was applied and left for 24 hrs. Isolated cells were then used to image the entire neuron and visualize dendrites and spines on a single neuron.
# [2] = test system: pyramidal cells in the CA1 region of the hippocampus; experiment: Golgi staining morphological analysis of CA1 pyramidal cells; format: in vivo, mouse; details: for total spine counts, apical dendrites / total spine counts, basal dendrites: FIG. 19B; for overall spine density: FIG. 20A; for spine density, apical dendrites / spine density, basal dendrite: FIG. 20B; for spine density versus branch order, overall: FIG. 21A; for spine density versus branch order, basal dendrites: FIG. 21B; for spine density versus branch order, apical dendrites: FIG. 21C; for spine density at 30 um intervals from the soma, overall: FIG. 22A; for spine density at 30 um intervals from the soma, basal dendrites: FIG. 22B; for spine density at 30 um intervals from the soma, apical dendrites: FIG. 22C
# Protocol: Details of the animals, materials, and methods used are provided following the discussion section below. Briefly, all studies discussed below were conducted using three groups of animals designated “Young” (2 months of age at the beginning of the 8-week study, 4 months of age at time of testing; “Old” (22 months of age at beginning of study, 24 months of age at time of testing); and “Treatment” (“Old” mice who received GL-II-73 in the drinking water for 8 weeks prior to evaluation of cognitive ability and pyramidal cell morphology). The last study further included a fourth group of animals, “Treatment+Washout” which were treated the same as the “Treatment” group except that the GL-II-73 was removed for a 1 week “wash-out” period prior to evaluation of pyramidal cell morphology.
# We confirmed and extended these findings by conducting similar analyses of pyramidal cells in a different brain region, namely the CA1 region of the hippocampus, using the same animals. […] As observed above for the pyramidal cells of the PFC, the morphology of the CA1 pyramidal cells in the treatment group was very similar to that of the young mice. […] The positive correlation between the morphological changes observed in each of the three groups of animals in both regions of the brain, CA1 vs PFC brain regions is shown in FIGS. 11-12. This positive correlation of morphological changes across these two regions of the brain indicates a common factor underlying the effects in both regions.
# We also performed the same morphological analyses of pyramidal cells in the CA1 region of the hippocampus for each group.
# Drug preparation and administration: The compound GL-II-73 was administered in the drinking water for 8 weeks, and made fresh every other day to prevent any deterioration of the compound in the water at room temperature. The solution was prepared at 30 mg/kg for an estimated volume of 8 ml/mouse/day, based on previous calculations. For the pilot study in the 5×FAD mouse model, the compound GL-II-73 was prepared for intra peritoneal injection only, at a dose of 10 mg/kg. Vehicle solution was made of 85% distilled water, 14% propylene glycol and 1% tween-80.
# Brain collection and Golgi staining: Twenty-four hours after the completion of the behavioral testing, mice were euthanized using cervical dislocation. Brains were carefully collected from the skull, rinsed with MilliQ water and immersed in the Golgi staining solution provided by Neurodigitech (San Diego, CA). Six hours after the beginning of the incubation, the solution was changed to provide fresh solution. Then brains were left incubating for 14 days at room temperature, in the dark. For better results, vials containing the brains were gently swirled 3 times a week. After the incubation period, the staining solution was discarded and replaced by a storage solution and brains (n=4 per group) were shipped to Neurodigitech for morphological analysis.
# Sample selection criteria: The sampling process was conducted as follows: The investigators first 1) previewed the entire rostro-caudal axis of ROIs, under low-mag Zeiss objectives (10× and 20×), 2), compared and located those with the least truncations of distal dendrites as possible under high-mag Zeiss objectives (40× and 63×), 3), and then 4) used a Zeiss 100× objective with immersion oil to perform 3D dendritic reconstruction, followed by counting of the spines throughout the entire dendritic trees. The criteria for selecting candidate neurons for analysis were based on i) visualization of a completely filled soma with no overlap of neighboring soma and completely filled dendrites, ii) the tapering of most distal dendrites; iii) the visualization of the complete 3-D profile of dendritic trees using the 3-D display of imaging software. Neurons with incomplete impregnation and/or neurons with truncations due to the plane of sectioning were not collected. […]
# [3] = Table 3, Old, Treatment group, 4 samples
# [4] = Table 3, Old, Washout group, 4 samples
# [5] = first study, Old+Treatment mice
# [6] = washout study, Old+Treatment vs Young mice, p>0.05
# [7] = washout study, Washout vs Old mice, p<0.05
# [8] = washout study, Old+Treatment vs Old mice, p<0.05
structure (smiles),measurement,setting,value
"C#Cc1ccc2c(c1)C(c1ccccc1F)=N[C@H](C)c1c(C(=O)N(C)C)ncn1-2 (stereo in doubt) [GL-II-73, 8-ethynyl-6-(2-fluorophenyl)-N,N,4-trimethyl-4H-benzo[f]imidazo[1,5-a][1,4]diazepine-3-carboxamide]",dendritic length,[1],longer dendrites
same,spine density (spines),[1],more spines
same,Total segments,"[2]; Table 3, washout study, Old, Treatment group (8 weeks GL-II-73), 4 samples",1226
same,Overall spinal density,[2]; [3],1.07
same,Total lengths (microns),[2]; [3],60170 microns
same,total spine counts,[2]; [3],64468
same,Total segments,"[2]; Table 3, Old, Washout group (8 weeks GL-II-73, then 1 week wash-out), 4 samples",1266
same,Overall spinal density,[2]; [4],1.10
same,Total lengths (microns),[2]; [4],65954 microns
same,total spine counts,[2]; [4],72587
same,"Frequency of Intersections × 30 um interval from soma, apical",[2]; [5],"at 150 um-180 um, apically"
same,"Frequency of Intersections × 30 um interval from soma, basal",[2]; [5],"higher frequency at 120 um-150 um, basally"
same,Frequency of Intersections × 30 um interval from soma,"[2]; first study, Old+Treatment vs Old mice",higher frequency of intersections at the middle (120 um to 180 um) of the dendritic field than Old mice
same,spine density,"[2]; first study, treatment group vs untreated old mice",relatively higher spine density than the untreated group of old mice
same,total spine counts,"[2]; washout study, FIG. 19A, Old+Treatment vs Young mice, p>0.05",no difference was found between Young and Old+Treatment as well as Washout mice
same,total spine counts,"[2]; washout study, FIG. 19A, Washout (1 week after 8 weeks GL-II-73) vs Old mice, p<0.05",higher spine counts than Old mice
same,"total spine counts, apical dendrites",[2]; [6],no difference in total spine counts of both basal and apical dendrites between Young and Old+Treatment as well as Washout mice
same,"total spine counts, basal dendrites",[2]; [6],no difference in total spine counts of both basal and apical dendrites between Young and Old+Treatment as well as Washout mice
same,"total spine counts, apical dendrites",[2]; [7],higher spine counts of apical dendrites than Old mice
same,"total spine counts, basal dendrites",[2]; [7],higher spine counts of basal dendrites than Old mice
same,overall spine density,[2]; [8],higher spine density than Old mice
same,overall spine density,[2]; [7],higher spine density than Old mice
same,"spine density, apical dendrites",[2]; [8],"Old mice exhibited a lower spine density than Young, Old+Treatment and Washout mice"
same,"spine density, basal dendrite",[2]; [8],"Old mice showed a significant decrease in the basal dendrite as compared to Young, Old+Treatment and Washout mice"
same,"spine density, apical dendrites",[2]; [7],"Old mice exhibited a lower spine density than Young, Old+Treatment and Washout mice"
same,"spine density, basal dendrite",[2]; [7],"Old mice showed a significant decrease in the basal dendrite as compared to Young, Old+Treatment and Washout mice"
same,"spine density versus branch order, overall",[2]; [8],higher spine density at the 1st and 5th branch orders
same,"spine density versus branch order, overall",[2]; [7],higher spine density at the 1st and 3rd to 6th
same,"spine density versus branch order, basal dendrites",[2]; [8],higher density at the 1st branch order than Old mice
same,"spine density versus branch order, basal dendrites",[2]; [7],higher density at the 1st branch order than Old mice
same,"spine density versus branch order, apical dendrites",[2]; [8],higher density at the 1st order than Old mice
same,"spine density versus branch order, apical dendrites",[2]; [7],at the 4th and 5th orders than Old mice
same,"spine density at 30 um intervals from the soma, overall",[2]; [8],higher spine density at 30 um to 60 um and 120 um to 240 um from soma
same,"spine density at 30 um intervals from the soma, overall",[2]; [7],higher spine density at 30 um to 180 um from soma
same,"spine density at 30 um intervals from the soma, basal dendrites",[2]; [8],higher density at 30 um from soma than Old mice
same,"spine density at 30 um intervals from the soma, basal dendrites",[2]; [7],higher density at 30 um from soma than Old mice
same,"spine density at 30 um intervals from the soma, apical dendrites",[2]; [8],higher density at 120 um to 180 um from soma than Old mice
same,"spine density at 30 um intervals from the soma, apical dendrites",[2]; [7],higher spine density at 30 um to 60 um and 120 um to 210 um from soma than Old mice
